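Each compound was tested at five concentrations against cells in 96-well plates for 48 hours. TGI marks complete inhibition of growth.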

Common to all, as to assay: NCI tumour cell line growth inhibition, 48 h
Assay [1] relates to A549 NSCLC.
The subject of assay [2] is CAKI-1 renal.
The subject of assay [3] is EKVX NSCLC.
Assay [4] has as its system HS 578T breast.
Assay [5] concerns KM12 colon.
For assay [6], the system named is MDA-N.
In assay [7] the test system is NCI-H226 lung.
Assay [8] has as its system NCI-H522 lung.
The subject of assay [9] is RPMI-8226 leukemia.
Assay [10] deals with RXF 393 renal.
Assay [11] has as its system SK-MEL-2 melanoma.
Assay [12] deals with SK-MEL-28 melanoma.
In assay [13] the test system is SK-MEL-5 melanoma.
The subject of assay [14] is SNB-75 CNS.
Assay [15] relates to TK-10 renal.
In assay [16] the test system is M14 melanoma.

Take `c1ccc2c3c([nH]c2c1)C1c2[nH]c4ccccc4c2CCN1CC3`: the TGI stood at 36.2 µM in [1]; 34.2 µM in assay [2]; 20.2 µM in assay [3]; 44.7 µM in assay [4]; 41.3 µM in [5]; 35.6 µM in assay [6]. Also, the TGI in assay [7] was 37.6 µM; in assay [8], 28.6 µM; in assay [9], greater than 100 µM; in assay [10], 27 µM; in assay [11], 64.2 µM; in assay [12], 31.7 µM. The TGI in assay [13] was determined as 28 µM; in assay [14], 38.8 µM; in assay [15], 23.2 µM.

With `Cc1cc2c(cc1C)[n+](=O)c(N1CCN(c3ccc([N+](=O)[O-])cc3)CC1)c(C#N)n2[O-]`, the TGI in assay [1], in [2], in assay [3], in assay [4], in assay [5] and in assay [16] was greater than 100 µM in each case. Moreover, the TGI in assay [6] is greater than 100 µM; in assay [7] it was greater than 100 µM; in assay [8], 88.3 µM; in assay [9] it was greater than 100 µM; in assay [10] it was 29.9 µM; in assay [11] it was 66 µM. For the same molecule, the TGI in assay [12] is greater than 100 µM; in assay [13] it was greater than 100 µM; in assay [14] it was 21.7 µM; in assay [15] it was 35.3 µM.

Consider `CSc1nc2c(N)ncnc2n1C`, for which the TGI in [1], in [2], in assay [3], in assay [4], in [5] and in assay [16] was greater than 100 µM each time. Besides, the TGI in [6], in assay [7], in assay [8], in assay [9], in assay [10] and in assay [11] was greater than 100 µM each time. Moreover, the TGI in [12], in [13], in assay [14] and in assay [15] was greater than 100 µM throughout.

`COC(=O)NN=C(c1ccc(Cl)cc1)c1ccc(Cl)cc1`: the TGI in [1], in assay [2], in assay [3], in assay [4], in [5] and in assay [16] was greater than 100 µM in each case. The TGI in assay [6], in assay [7], in [8], in assay [9], in [10] and in assay [11] was greater than 100 µM in each case. In addition, the TGI in [12], in [13], in [14] and in assay [15] was greater than 100 µM each time.

In the case of `N#CC1CCN2N=C(c3ccccc3)SC12c1ccccc1` (configuration not stated), the TGI is greater than 100 µM in [1]; greater than 100 µM in assay [2]; 97.3 µM in assay [3]; greater than 100 µM in assay [4]; greater than 100 µM in [5]; greater than 100 µM in assay [16]. In addition, the TGI in assay [6], in assay [7], in assay [8], in [9], in assay [10] and in assay [11] was greater than 100 µM throughout. Also, the TGI in assay [12], in [13], in assay [14] and in assay [15] was greater than 100 µM throughout.

Consider `O=C(CCc1ccc(O)c(O)c1)NCCc1cc(OCc2ccccc2)cc(OCc2ccccc2)c1`, for which the TGI in assay [1] is greater than 100 µM; in [2], 17.7 µM; in assay [3] it was 29.3 µM; in assay [4] it was 40.2 µM; in assay [5], 34.7 µM; in assay [16] it was 34 µM. The TGI is 29.2 µM in [6]; 48.2 µM in [7]; 4.62 µM in [8]; greater than 100 µM in assay [9]; 36.8 µM in assay [10]; 42 µM in assay [11]. Besides, the TGI in [12] is 46.3 µM; in assay [13] it was 28.7 µM; in assay [14] it was 22.2 µM; in assay [15], 41.5 µM.

As for `[N-]=[N+]=Nc1c([N+](=O)[O-])c(Cl)nc2ccccc12`, the TGI came out at 35.2 µM in assay [1]; 4.58 µM in assay [2]; 7.45 µM in assay [3]; 8.64 µM in assay [4]; 21.1 µM in assay [5]; 3.27 µM in assay [16]. The TGI in assay [6] was 6.56 µM; in assay [7], 33.5 µM; in [8] it was 0.866 µM; in assay [9] it was greater than 20.8 µM; in [10] it was 3.28 µM; in assay [11], 5.07 µM. Moreover, the TGI in assay [12] is 5.23 µM; in [13], 21.3 µM; in assay [14], 22.1 µM; in assay [15] it was 3.78 µM.

Take `O=c1cc(-c2ccccc2)oc2ccc(Oc3nnnn3-c3ccccc3)cc12`: the TGI in assay [1] was greater than 100 µM; in assay [2], greater than 86.5 µM; in [3] it was greater than 100 µM; in assay [4], greater than 83 µM; in assay [5], greater than 100 µM; in assay [16], greater than 100 µM. Moreover, the TGI is greater than 100 µM in [6]; greater than 100 µM in [7]; greater than 100 µM in assay [8]; greater than 100 µM in [9]; greater than 76.1 µM in assay [10]; greater than 84.5 µM in assay [11]. The TGI was greater than 100 µM in assay [12], greater than 100 µM in assay [13], greater than 92.5 µM in [14] and greater than 100 µM in assay [15].
